Laboratory results reported in PubChem BioAssay AID588548 (Broad Institute, 2011).

target: Scavenger receptor class B member 1 (Mus musculus) (UniProt Q61009); experiment: inhibition of HDL lipid transfer via mSR-BI – ldlA[mSR-BI] CHO cells, powder samples, set 4, dose response (AID 588548); conditions: DiI-HDL uptake fluorescence, 3 h
Sequence (Q61009 whole entry, looked up): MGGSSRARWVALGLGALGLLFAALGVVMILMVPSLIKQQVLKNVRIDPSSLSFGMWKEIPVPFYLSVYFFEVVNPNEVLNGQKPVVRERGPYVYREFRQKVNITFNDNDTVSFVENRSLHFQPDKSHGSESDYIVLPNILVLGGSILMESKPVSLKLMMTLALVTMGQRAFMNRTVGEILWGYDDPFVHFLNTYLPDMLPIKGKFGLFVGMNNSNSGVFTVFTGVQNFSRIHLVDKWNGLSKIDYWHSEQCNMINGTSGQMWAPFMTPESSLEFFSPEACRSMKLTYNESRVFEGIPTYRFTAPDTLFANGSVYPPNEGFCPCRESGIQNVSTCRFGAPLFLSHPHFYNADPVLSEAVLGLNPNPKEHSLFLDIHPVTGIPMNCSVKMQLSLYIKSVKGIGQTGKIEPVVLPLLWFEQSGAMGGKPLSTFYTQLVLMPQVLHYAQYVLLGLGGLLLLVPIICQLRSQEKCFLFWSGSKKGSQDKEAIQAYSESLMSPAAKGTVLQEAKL

AC50, active:
COc1ccc(-c2cc(CC(=O)N(C3CCCCC3)C(C)C(=O)NC3CCCC3)no2)cc1OC (configuration not stated) 28.5 nM
O=C(CN(C(=O)Cn1nnc(-c2ccc3c(c2)OC(F)(F)O3)n1)C1CCCCC1)NC1CCCC1 26 nM
COc1ccc(-c2nc(CC(=O)N(C3CCCCC3)C(C)C(=O)NC3CCCC3)cs2)cc1OC (configuration not stated) 5260 nM
CC(C(=O)NC1CCCC1)N(C(=O)Cn1nnc(-c2ccc3c(c2)OCO3)n1)C1CCOCC1 (configuration not stated) 3180 nM
CC(C(=O)NC1CCCC1)N(C(=O)Cn1nnc(-c2ccc(Cl)c(Cl)c2)n1)C1CCCCC1 (configuration not stated) 250 nM
CCC(=O)N1CCc2cc(-c3csc(N(C)C(=O)c4cc(OC)cc(OC)c4)n3)ccc21 50 nM
CCC(=O)N1CCc2cc(-c3csc(NC(=O)c4cc5cccnc5o4)n3)ccc21 45.3 nM
CCC(=O)N1CCc2cc(-c3csc(NC(=O)c4cc(OC)cc(OC)c4)n3)ccc21 29.5 nM
COC(=O)N1CCc2cc(-c3csc(NC(=O)c4cc(OC)cc(OC)c4)n3)ccc21 72 nM
CCC(=O)Nc1ccc(-c2csc(NC(=O)c3ccco3)n2)cc1 1920 nM
COc1cc(OC)cc(C(=O)Nc2nc(-c3ccc4[nH]ccc4c3)cs2)c1 50.5 nM
CCC(=O)N1CCc2cc(-c3csc(NC(=O)c4cccc(OC(F)(F)F)c4)n3)ccc21 18.5 nM
CC(C(=O)NC1CCCC1)N(C(=O)Cn1nnc(-c2ccc3c(c2)OCO3)n1)C1CCCCC1 (configuration not stated) < 15 nM
CC(C(=O)NC1CCCC1)N(C(=O)Cn1nnc(-c2ccc3c(c2)OC(F)(F)O3)n1)C1CCCCC1 (configuration not stated) 63.5 nM
O=C(CN(C(=O)Cn1nnc(-c2ccc3c(c2)OCO3)n1)C1CCCCC1)NC1CCCC1 < 15 nM
CCC(=O)N1CCc2cc(-c3csc(NC(=O)c4cc(OC)c(OC)c(OC)c4)n3)ccc21 < 15 nM
CCCCCCC1CCC/C1=N\NC(N)=S (configuration not stated) < 15 nM
O=C(Nc1nc(-c2ccc3c(c2)CCN3)cs1)c1ccco1 < 15 nM
O=C(CN(C(=O)Cn1nnc(-c2ccc(Cl)c(Cl)c2)n1)C1CCCCC1)NC1CCCC1 302 nM
CCC(=O)N1CCc2cc(-c3csc(NC(=O)c4ccco4)n3)ccc21 28.6 nM
CCNC(=O)N1CCc2cc(-c3csc(NC(=O)c4cc(OC)cc(OC)c4)n3)ccc21 < 15 nM
CCC(=O)Nc1ccc(-c2csc(NC(=O)c3cccc(OC)c3)n2)cc1 99.3 nM
CCCN1CCc2cc(-c3csc(NC(=O)c4cc(OC)cc(OC)c4)n3)ccc21 51.7 nM
CC(C)(C)OC(=O)N1CCc2cc(-c3noc(NC(=O)c4ccco4)n3)ccc21 14600 nM
COc1cc(OC)cc(C(=O)Nc2nc(-c3ccc4c(c3)CCN4C(=O)CN(C)C)cs2)c1 < 15 nM
COCC(=O)N1CCc2cc(-c3csc(NC(=O)c4cc(OC)cc(OC)c4)n3)ccc21 < 15 nM
COc1cc(OC)cc(C(=O)Nc2nc(-c3ccc4c(c3)CCN4)cs2)c1 103 nM
COc1cc(OC)cc(C(=O)Nc2nc(-c3ccc4c(c3)CCN4C(C)=O)cs2)c1 24.9 nM
COc1cc(OC)cc(C(=O)Nc2nc(-c3ccc4c(c3)CCN4C(=O)OC(C)(C)C)cs2)c1 < 15 nM
COc1ccc(-c2nnn(CC(=O)N(CC(=O)NC3CCCC3)C3CCCCC3)n2)cc1OC < 15 nM
CCC(=O)N1CCc2cc(-c3csc(/N=C(/OC)c4cc(OC)cc(OC)c4)n3)ccc21 1020 nM
CCC(=O)Nc1ccc(-c2csc(N)n2)cc1 8840 nM
